Measurements from patent US8435929B2, “1-aminocyclopropane carboxylic acid as a fruit thinner” (Valent BioSciences Corporation, priority 2009, dated 2013).

Legend:
Babygold #5 peach = experiment: Field thinning study, fruit set of Babygold #5 peach; type: in vivo
Protocol: (§1) A series of field studies on stone fruit thinning were performed over several seasons, on different varieties and in various locations to determine the consistency of the thinning effect of ACC. Even without the application of a chemical thinning agent, crop load (number of fruit remaining divided by the number of flowers or fruit prior to application) was variable. Chemical thinning of stone fruit is variable and dependent on many factors including variety and environment. An acceptable chemical thinning agent is one that gives a substantial and relatively consistent reduction in crop load for a given dose over a wide range of trials.
The effect of ACC rate and timing was determined. ACC was sprayed on Babygold #5 peach trees at bloom (Table 1) or shuck split (early fruitlet stage) (Table 2).

Tatura 204 peaches = experiment: Field thinning study, fruit set of Tatura 204 peaches; type: in vivo, peach; conditions: application at late shuck fall
Protocol: as §1
ACC was sprayed on Tatura 204 peach trees at late shuck fall (Table 3).

Garnet Beauty peaches = experiment: Field thinning study, fruit set of Garnet Beauty peaches; type: in vivo, peach; conditions: application at petal fall
Protocol: as §1
Follow up studies confirmed that higher rates (500 or 750 ppm ACC) produced a moderate to heavy crop load on Babygold #5 at two locations (Tables 8 and 9) and Garnet Beauty (Table 10).

cotton cotyledons = experiment: Cotton cotyledon bioassay, ethylene production; type: in vivo
Source text: For laboratory and growth chamber studies, deionized ultra-pure water was used in preparing solutions. Spray solutions were used as soon as possible after mixing. All spray solutions were amended with spray adjuvants as appropriate. A cotton cotyledon bioassay was used in the laboratory to study the effects of ACC or ethephon on induction of ethylene. Ten day old cotton plants with fully expanded cotyledons were used. Sprays were made to the upper (adaxial) surface of the leaves and the plants were then incubated in growth cabinets at the temperatures indicated. The cotyledons were excised at the times indicated and placed in sealed plastic vials. Headspace ethylene samples were measured on a Hewlett Packard 5890 gas chromatograph equipped with a packed Haysep T column (Alltech, Deerfield, Ill.) and a flame ionization detector.
Selected characteristics of ACC conversion to ethylene (i.e. dose response, time course, and temperature effect) were assessed to determine whether the relative consistence of ACC as a stone fruit and apple thinner was related to performance as an ethylene producer. In these bioassays, ACC solutions were applied to cotton cotyledons by a hand sprayer at the doses indicated and all spray solutions contained 0.05% (v/v) L-77.
In the first study, the effect of ACC dose sprays on ethylene produced by cotton cotyledons was determined. (Table 16). Cotton plants were sprayed with solution (ACC at 1, 10, 25, 50, 100, 250, 500, or 1000 ppm) and the cotyledons were excised 6 or 24 h after spraying and incubated in sealed tubes for 4 h. Ethylene levels were determined production was assayed.
In the second study, the time course of ethylene production following application of 500 mg/liter ACC or ethephon was determined (Table 17).
In the third study, the effect of temperature on ethylene production following ACC or ethephon application was determined (Table 18). The incubation of the plants following spraying and the incubation of the detached leaves were performed at 25 and 35° C.

With `NC1(C(=O)O)CC1` [ACC, 1-aminocyclopropane carboxylic acid] the “Crop load (percent) of treated trees compared to the water control” value (“Crop load (percent) … to the water control” below) (Babygold #5 peach; 100 ppm, application at bloom) was 90%, the “Crop load (percent) … to the water control” value (Babygold #5 peach; 100 ppm, application at shuck split, 0.05% Regulaid adjuvant) was 102% and the “Crop load (percent) … to the water control” value (Babygold #5 peach; 300 ppm, application at bloom) was 77%. For the same compound, the Percent fruit set (Babygold #5 peach; 300 ppm, application at bloom) was 57%, the Percent fruit set (Babygold #5 peach; 300 ppm, application at shuck split, 0.05% Regulaid adjuvant) was 61% and the “Crop load (percent) … to the water control” value (Babygold #5 peach; 1000 ppm, application at bloom) was 40%. For the same compound, the Percent fruit set (Babygold #5 peach; 1000 ppm, application at bloom) was 30%, the Percent fruit set (Babygold #5 peach; 1000 ppm, application at shuck split, 0.05% Regulaid adjuvant) was 11% and the “Crop load (percent) of treated trees compared to the untreated control” value (“Crop load (percent) … to the untreated control” for short) (Tatura 204 peaches; 100 ppm) was 86%. The Percent fruit set (Tatura 204 peaches; 100 ppm) was 65%, the “Crop load (percent) … to the untreated control” value (Tatura 204 peaches; 300 ppm) was 57% and the Percent fruit set (Tatura 204 peaches; 300 ppm) was 43%. For the same compound, the “Crop load (percent) … to the untreated control” value (Tatura 204 peaches; 500 ppm) was 39%, the Percent fruit set (Tatura 204 peaches; 500 ppm) was 30% and the “Crop load (percent) … to the untreated control” value (Tatura 204 peaches; 1000 ppm) was 36%. For the same compound, the Percent fruit set (Tatura 204 peaches; 1000 ppm) was 27%, the “Crop load (percent) … to the untreated control” value (Garnet Beauty peaches; 500 ppm) was 82% and the Percent fruit set (Garnet Beauty peaches; 500 ppm) was 27%. For the same compound, the “Crop load (percent) … to the untreated control” value (Garnet Beauty peaches; 750 ppm) was 58%, the Percent fruit set (Garnet Beauty peaches; 750 ppm) was 19% and the Ethylene production (cotton cotyledons; 10 ppm, 6 h after spraying, 25 C) was 4.2 nl/g leaf weight/h incubated. The Ethylene production (cotton cotyledons; 10 ppm, 24 h after spraying, 25 C) was 13.7 nl/g leaf weight/h incubated, the Ethylene production (cotton cotyledons; 25 ppm, 6 h after spraying, 25 C) was 5.9 nl/g leaf weight/h incubated and the Ethylene production (cotton cotyledons; 25 ppm, 24 h after spraying, 25 C) was 22.8 nl/g leaf weight/h incubated. The Ethylene production (cotton cotyledons; 50 ppm, 6 h after spraying, 25 C) was 8.3 nl/g leaf weight/h incubated, the Ethylene production (cotton cotyledons; 50 ppm, 24 h after spraying, 25 C) was 32.4 nl/g leaf weight/h incubated and the Ethylene production (cotton cotyledons; 100 ppm, 6 h after spraying, 25 C) was 11.8 nl/g leaf weight/h incubated. For the same compound, the Ethylene production (cotton cotyledons; 100 ppm, 24 h after spraying, 25 C) was 45.2 nl/g leaf weight/h incubated, the Ethylene production (cotton cotyledons; 200 ppm, 24 h after application, incubated at 25 C) was 35.7 nl/g leaf weight/h incubated and the Ethylene production (cotton cotyledons; 200 ppm, 24 h after application, incubated at 35 C) was 19.9 nl/g leaf weight/h incubated. For the same compound, the Ethylene production (cotton cotyledons; 250 ppm, 6 h after spraying, 25 C) was 19.4 nl/g leaf weight/h incubated, the Ethylene production (cotton cotyledons; 250 ppm, 24 h after spraying, 25 C) was 59.8 nl/g leaf weight/h incubated and the Ethylene production (cotton cotyledons; 500 ppm, 1 h following spray application, 25 C (time course)) was 62.8 nl/g leaf weight/h incubated. The Ethylene production (cotton cotyledons; 500 ppm, 4 h following spray application, 25 C (time course)) was 36.7 nl/g leaf weight/h incubated, the Ethylene production (cotton cotyledons; 500 ppm, 6 h after spraying, 25 C) was 22.8 nl/g leaf weight/h incubated and the Ethylene production (cotton cotyledons; 500 ppm, 15 h following spray application, 25 C (time course)) was 45.7 nl/g leaf weight/h incubated. For the same compound, the Ethylene production (cotton cotyledons; 500 ppm, 24 h after spraying, 25 C) was 64.4 nl/g leaf weight/h incubated, the Ethylene production (cotton cotyledons; 500 ppm, 24 h following spray application, 25 C (time course)) was 49.3 nl/g leaf weight/h incubated and the Ethylene production (cotton cotyledons; 500 ppm, 48 h following spray application, 25 C (time course)) was 45.3 nl/g leaf weight/h incubated. For the same compound, the Ethylene production (cotton cotyledons; 1000 ppm, 6 h after spraying, 25 C) was 25.1 nl/g leaf weight/h incubated and the Ethylene production (cotton cotyledons; 1000 ppm, 24 h after spraying, 25 C) was 92.1 nl/g leaf weight/h incubated.
